Values quoted from earlier work as cited in article PMC2981068 (Journal of medicinal chemistry, 2010).
Marks after values point to notes of the source that are not given here.

Key:
[1] = tested on: Enterocococci bacterial strains (VanA and VanB); settings: resistant vs sensitive bacteria; ref [1d]
[2] = tested on: E. faecalis (VanA, strain BM4166), vancomycin- and teicoplanin-resistant; settings: footnotes d, ref [7]–[8], [4]
[3] = tested on: E. faecalis (VanB, strain ATCC 51299), vancomycin-resistant and teicoplanin-sensitive; settings: footnotes d, ref [7]–[8], [4]
[4] = tested on: Staphylococcus aureus (strain ATCC 25923), vancomycin-sensitive; settings: reference not given, ref [1a],[6] as in b5
[5] = computationally determined, relative to 2 with ligand 3; ref [11]

Substance	drop in antimicrobial activity on D-Ala to D-Lac change [1]	MIC E. faecalis (VanA) (value in parentheses) [2]	MIC E. faecalis (VanB) (value in parentheses) [3]	MIC for sensitive strain (comparator in text) [4]	ΔΔGb cal, ligand 3 [5]
Vancomycin [Compound 1]	1000 fold	2000 (2000) ^e μg/mL	125 µg/mL	–	–
chlorobiphenyl vancomycin [Compound 8]	–	–	–	0.03 µg/mL	–
vancomycin aglycon [Compound 2]	–	640 (640) ^d, ^e μg/mL	80 µg/mL	–	0.0 (0.0) ^d kcal/mol
